{"source": "patent US20260232767A1", "about": "“INTERLEUKIN-23 RECEPTOR ANTAGONIST PEPTIDES FOR USE IN THE TREATMENT OF PSORIASIS” (Janssen Pharmaceutica NV, priority 2023, published 2026)", "system": "subjects with moderate-to-severe plaque psoriasis", "experiment": "DLQI, Example 1", "assay_type": "in vivo, human", "conditions": "each dose group vs placebo; Week 16", "source_text": "The Dermatological Life Quality Index (DLQI) is a dermatology-specific health-related quality of life (HRQoL) instrument designed to assess the impact of the disease on a participant's HRQoL. It is a 10-item questionnaire that assesses HRQoL over the past week and in addition to evaluating overall HRQoL, can be used to assess 6 different aspects that may affect quality of life: symptoms and feelings, daily activities, leisure, work or school performance, personal relationships, and treatment. The total score ranges from 0 to 30 with a higher score indicating greater impact on quality of life (QoL).\nEfficacy, PK, immunogenicity, biomarker, pharmacogenomic, and safety criteria were measured during the treatment. Subjects were provided with an electronic device to enter patient-reported outcome (PRO) data at each study visit. All visit-specific PRO assessments were conducted/completed before any tests, procedures or other clinical assessments, with the exception of the urine pregnancy test and urinalysis, to prevent influencing subject perceptions."}
{"smiles": "CC(=O)NCCCC[C@@H]1NC(=O)[C@H](Cc2c[nH]c3c(C)cccc23)NC(=O)[C@H]([C@@H](C)O)NC(=O)[C@H](CC(N)=O)NC(=O)[C@@H](NC(C)=O)C(C)(C)SSC(C)(C)[C@@H](C(=O)N[C@@H](Cc2ccc(OCCN)cc2)C(=O)N[C@@H](Cc2ccc3ccccc3c2)C(=O)NC2(C(=O)N[C@@H](CCC(=O)O)C(=O)N[C@@H](CC(N)=O)C(=O)N[C@@H](Cc3cccnc3)C(=O)N(C)CC(N)=O)CCOCC2)NC1=O", "note": "[IL-23 receptor antagonist peptide, Ac-[Pen]*-N-T-[W(7-Me)]-[Lys(Ac)]-[Pen]*-Phe[4-(2-aminoethoxy)]-[2-Nal]-[THP]-E-N-[3-Pal]-Sarc-NH2 (*[Pen]-[Pen]* formdisulfidebond)]", "values": [{"measurement": "Proportion achieving DLQI score of 0 or 1", "result": "significantly higher"}]}
